What was measured:
[1] = target: orthosteric glutamate site of mGluR5 (Homo sapiens, UniProt P41594); conditions: cited from earlier work
mGluR5 [2] = target: mGluR5 (Homo sapiens, UniProt P41594); conditions: cited from earlier work
mGluR5 [3] = target: T1, mGluR5 (Rattus norvegicus, UniProt P31424); assay: mGluR5 assay on rat cultured cortical astrocytes (Ca2+ mobilization, FLIPR); format: cell-based; conditions: for increase of 1 μM glutamate-induced Ca2+ mobilization: 3 μM compound, 1 μM glutamate (EC20), rat cultured astrocytes, FIG. 1; for agonistic activity in the absence of glutamate: no glutamate, compared to buffer value
T1 construct: a functional expression of mGluR5 receptors; endogenous in cells; host or cells: primary cortical astrocytes from Sprague-Dawley rat embryos (15 days), treated with bFGF and EGF
Procedure: For subsequent seeding, the FCS supplementation was reduced to 10%. After 12 days, cells were subplated by trypsinisation onto poly-D-lysine precoated 384-well plates at a density of 20.000 cells per well in culture buffer supplemented with […] βFGF (basic fibroblast growth factor) (Invitrogen, Basel, Switzerland) and 10 ng/ml EGF (epidermal growth factor) (Invitrogen, Basel, Switzerland).
After 60 min of loading with 4 uM Fluo-4 (TefLabs, Austin, Tex.), the cells were washed three times with 50 μl of PBS Buffer and resuspended in 45 μl of Assay Buffer. The plates were then transferred to a Fluorometric Imaging Plate Reader (FLIPR, Molecular Devices, Sunnyvale, Calif.) for the assessment of intracellular calcium flux. […] The final DMSO concentration in the assay was 0.3%. In each experiment, fluorescence was then monitored as a function of time for 3 minutes and the data analyzed using Microsoft Excel and GraphPad Prism. Each data point was also measured two times.
The concentration-response curves of representative compounds of the present invention in the presence of EC20 of glutamate were generated using the Prism GraphPad program (Graph Pad Software Inc, San Diego, USA).

T1 sequence (P31424 21-1203): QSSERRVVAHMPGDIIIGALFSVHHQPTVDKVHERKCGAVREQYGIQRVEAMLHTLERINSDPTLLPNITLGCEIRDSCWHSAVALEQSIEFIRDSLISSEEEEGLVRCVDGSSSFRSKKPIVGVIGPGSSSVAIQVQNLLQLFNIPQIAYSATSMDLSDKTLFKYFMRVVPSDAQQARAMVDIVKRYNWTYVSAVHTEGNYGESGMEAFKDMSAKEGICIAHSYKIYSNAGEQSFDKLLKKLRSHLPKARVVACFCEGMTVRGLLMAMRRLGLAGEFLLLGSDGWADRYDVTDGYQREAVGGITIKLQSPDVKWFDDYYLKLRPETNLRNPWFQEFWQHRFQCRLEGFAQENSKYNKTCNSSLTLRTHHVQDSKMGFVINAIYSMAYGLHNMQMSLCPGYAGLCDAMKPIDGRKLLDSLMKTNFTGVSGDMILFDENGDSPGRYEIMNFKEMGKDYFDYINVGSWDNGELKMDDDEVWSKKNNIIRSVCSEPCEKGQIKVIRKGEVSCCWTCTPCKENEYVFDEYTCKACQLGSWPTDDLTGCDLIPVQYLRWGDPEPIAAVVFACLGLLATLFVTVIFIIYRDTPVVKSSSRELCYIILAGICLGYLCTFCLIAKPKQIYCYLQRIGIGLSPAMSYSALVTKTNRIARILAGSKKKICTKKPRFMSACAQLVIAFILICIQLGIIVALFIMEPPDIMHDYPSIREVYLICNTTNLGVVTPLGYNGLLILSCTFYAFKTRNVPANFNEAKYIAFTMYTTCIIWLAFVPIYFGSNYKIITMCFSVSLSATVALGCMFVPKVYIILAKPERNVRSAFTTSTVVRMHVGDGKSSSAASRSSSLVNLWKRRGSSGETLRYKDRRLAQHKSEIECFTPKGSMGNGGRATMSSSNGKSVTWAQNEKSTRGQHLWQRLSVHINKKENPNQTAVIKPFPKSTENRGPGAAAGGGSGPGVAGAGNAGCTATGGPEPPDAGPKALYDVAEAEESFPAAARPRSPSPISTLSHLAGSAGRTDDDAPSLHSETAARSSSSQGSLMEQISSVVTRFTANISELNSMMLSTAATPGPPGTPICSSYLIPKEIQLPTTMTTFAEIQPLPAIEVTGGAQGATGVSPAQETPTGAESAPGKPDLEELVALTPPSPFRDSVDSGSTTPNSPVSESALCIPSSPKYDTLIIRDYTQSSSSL
mGluR5 (Homo sapiens, UniProt P41594), sequence (P41594 21-1212): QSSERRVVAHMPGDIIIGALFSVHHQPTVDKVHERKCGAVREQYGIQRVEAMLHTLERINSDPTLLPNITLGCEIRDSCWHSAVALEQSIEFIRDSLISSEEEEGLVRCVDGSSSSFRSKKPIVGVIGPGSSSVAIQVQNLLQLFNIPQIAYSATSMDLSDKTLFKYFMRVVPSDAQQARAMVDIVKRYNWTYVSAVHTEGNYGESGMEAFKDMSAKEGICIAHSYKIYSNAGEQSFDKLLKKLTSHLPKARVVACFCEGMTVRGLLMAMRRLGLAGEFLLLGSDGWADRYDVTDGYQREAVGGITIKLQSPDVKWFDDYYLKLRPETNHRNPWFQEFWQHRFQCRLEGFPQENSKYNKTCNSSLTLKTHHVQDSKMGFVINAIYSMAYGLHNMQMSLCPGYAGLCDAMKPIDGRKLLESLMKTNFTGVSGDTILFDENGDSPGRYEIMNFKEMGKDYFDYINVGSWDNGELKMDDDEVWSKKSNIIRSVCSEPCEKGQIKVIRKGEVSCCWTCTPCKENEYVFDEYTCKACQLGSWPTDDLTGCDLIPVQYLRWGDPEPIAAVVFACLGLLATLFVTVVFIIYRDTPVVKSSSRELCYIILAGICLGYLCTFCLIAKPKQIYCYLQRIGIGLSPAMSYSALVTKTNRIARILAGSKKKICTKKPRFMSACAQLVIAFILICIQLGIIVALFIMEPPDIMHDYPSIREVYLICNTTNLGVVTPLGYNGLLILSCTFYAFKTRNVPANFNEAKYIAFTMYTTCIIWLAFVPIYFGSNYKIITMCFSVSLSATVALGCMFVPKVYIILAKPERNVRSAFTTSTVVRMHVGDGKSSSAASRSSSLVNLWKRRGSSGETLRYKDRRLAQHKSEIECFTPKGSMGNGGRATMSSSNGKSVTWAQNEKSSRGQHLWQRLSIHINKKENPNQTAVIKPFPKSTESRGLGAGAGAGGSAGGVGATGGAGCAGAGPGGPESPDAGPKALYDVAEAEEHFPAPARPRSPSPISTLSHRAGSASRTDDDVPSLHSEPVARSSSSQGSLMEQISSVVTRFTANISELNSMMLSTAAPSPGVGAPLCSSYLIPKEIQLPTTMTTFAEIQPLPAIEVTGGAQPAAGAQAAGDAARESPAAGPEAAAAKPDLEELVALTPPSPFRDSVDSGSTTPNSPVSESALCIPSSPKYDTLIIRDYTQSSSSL
orthosteric glutamate site of mGluR5, sequence (P41594 21-1212): as above

SMILES	increase of 1 μM glutamate-induced Ca2+ mobilization (mGluR5 [3])	agonistic activity in the absence of glutamate (mGluR5 [3])	melting point	further results
Fc1cccc(C=NN=Cc2cccc(F)c2)c1 [DFB, 3,3′-Difluorobenzaldazine]	–	–	–	inhibition of the binding of [3H]-quisqualate to the orthosteric glutamate site [1]: not able to inhibit; in vitro potency as mGluR5 positive allosteric modulator (mGluR5 [2]): low in vitro potency
O=C(c1ccc(F)cc1)N1CCC[C@H](c2nc(-c3ccccc3F)no2)C1 [Example 55, (4-Fluoro-phenyl)-{(S)-3-[3-(2-fluoro-phenyl)-[1,2,4]oxadiazol-5-yl]-piperidin-1-yl}-methanone]	increase	no statistically significant agonistic activity	–	–
O=C(c1ccc(F)cc1)N1CCC[C@H](c2nc(-c3ccccn3)no2)C1 [Example 56, (4-Fluoro-phenyl)-[(S)-3-(3-pyridin-2-yl-[1,2,4]oxadiazol-5-yl)-piperidin-1-yl]-methanone]	increase	no statistically significant agonistic activity	–	–
O=C(c1ccc(F)cc1)N1CCC[C@H](c2nc(-c3ccc([N+](=O)[O-])cc3)no2)C1 [Example 71, (4-Fluoro-phenyl)-{(S)-3-[3-(4-nitro-phenyl)-[1,2,4]oxadiazol-5-yl]-piperidin-1-yl}-methanone]	–	–	162 to 164 °C	–
O=C(c1ccc(F)c(F)c1)N1CCC[C@H](c2nc(-c3ccc([N+](=O)[O-])cc3)no2)C1 [Example 72, (3,4-Difluoro-phenyl)-{(S)-3-[3-(4-nitro-phenyl)-[1,2,4]oxadiazol-5-yl]-piperidin-1-yl}-methanone]	–	–	138 to 140 °C	–

— patent US8163775B2, “Allosteric modulators of metabotropic glutamate receptors” (Addex Pharma SA, priority 2003, dated 2012)
